The record followed here is US9328099B2, “Cyanomethylpyrazole carboxamides as janus kinase inhibitors” (Merck Sharp & Dohme Corp., priority 2011, dated 2016).

Assay [1] addresses JAK2 (Homo sapiens (Human), UniProt O60674). The experiment in a line: Jak Biochemical HTRF Assay, JAK2. The following applies: HTRF biochemical assay, GST-tagged catalytic domain; top concentration tested […]. The text has this:
(§1) Jak Biochemical HTRF Assay Protocol
(§2) Subsequent reagent additions employed an Agilent Bravo.
Background: TR-FRET usually uses a lanthanide donor and a delayed reading to cut background.

Assay [2] addresses JAK1 (Homo sapiens (Human), UniProt P23458). The experiment in a line: Jak Biochemical HTRF Assay, JAK1. As to conditions: HTRF biochemical assay, GST-tagged catalytic domain; top concentration tested […]; read-out: JAK1 IC50.
Text: as §1, §2

Chain of JAK2 (O60674 849-1124): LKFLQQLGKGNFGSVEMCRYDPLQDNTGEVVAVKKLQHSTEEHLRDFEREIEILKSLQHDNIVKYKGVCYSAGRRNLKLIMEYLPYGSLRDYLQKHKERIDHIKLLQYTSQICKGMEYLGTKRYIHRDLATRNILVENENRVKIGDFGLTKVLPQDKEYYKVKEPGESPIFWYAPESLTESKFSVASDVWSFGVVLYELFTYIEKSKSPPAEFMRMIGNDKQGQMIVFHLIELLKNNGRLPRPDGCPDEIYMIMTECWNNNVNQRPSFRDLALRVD
Chain of JAK1 (P23458 875-1153): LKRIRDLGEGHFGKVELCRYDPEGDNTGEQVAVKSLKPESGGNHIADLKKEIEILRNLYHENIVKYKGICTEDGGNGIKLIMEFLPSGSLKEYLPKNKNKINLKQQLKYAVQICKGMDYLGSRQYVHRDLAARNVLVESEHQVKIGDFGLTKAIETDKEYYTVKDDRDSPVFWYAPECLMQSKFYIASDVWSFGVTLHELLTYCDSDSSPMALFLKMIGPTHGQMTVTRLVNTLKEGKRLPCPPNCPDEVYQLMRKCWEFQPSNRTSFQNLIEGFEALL

For `CCOc1ccc(NC(=O)N2CC(CC#N)(n3cc(C(N)=O)c(Nc4ccccc4)n3)C2)cc1` [Example 38-26, 1-{3-(cyanomethyl)-1-[(4-ethoxyphenyl)carbamoyl]azetidin-3-yl}-3-(phenylamino)-1H-pyrazole-4-carboxamide], the figures for the IC50 in assay [1] and in assay [2] were 69 nM and 2 nM, respectively.

As to `N#CCC1(n2cc(C(N)=O)c(Nc3ccc(F)cc3)n2)CCN(c2cncc(C#N)c2)CC1` [Example 3-21, 1-[4-(cyanomethyl)-1-(5-cyanopyridin-3-yl)piperidin-4-yl]-3-[(4-fluorophenyl)amino]-1H-pyrazole-4-carboxamide], the IC50 was found to be 20 nM in assay [1] and 0.6 nM in assay [2].

On to `Cc1cc(N2CCC(CC#N)(n3cc(C(N)=O)c(Nc4ccc(F)cc4)n3)CC2)cnc1C` [Example 3-14, 1-[4-(cyanomethyl)-1-(5,6-dimethylpyridin-3-yl)piperidin-4-yl]-3-[(4-fluorophenyl)amino]-1H-pyrazole-4-carboxamide], for which the IC50 in assay [1] was 49 nM; in assay [2] it was 2 nM.

With `N#CCC1(n2cc(C(N)=O)c(Nc3ccc(F)cc3)n2)CCN(Cc2cccnc2)CC1` [Example 22-51, 1-[4-(cyanomethyl)-1-(pyridin-3-ylmethyl)piperidin-4-yl]-3-[(4-fluorophenyl)amino]-1H-pyrazole-4-carboxamide], the 50% inhibitory concentration (IC50) in assay [1] came to 9 nM; in assay [2], 0.4 nM.

Take `CC(C)(C)OC(=O)N1CCC(CC#N)(n2cc(C(N)=O)c(Nc3ccc(N4CCOCC4)nc3)n2)CC1` [Example 12-4, tert-butyl 4-(4-carbamoyl-3-{[6-(morpholin-4-yl)aphthal-3-yl]amino}-1H-pyrazol-1-yl)-4-(cyanomethyl)piperidine-1-carboxylate]: the IC50 is 3 nM in assay [1] and 0.8 nM in assay [2].

Take `CN(C)c1ccc(C(=O)N2CCC(CC#N)(n3cc(C(N)=O)c(Nc4ccccc4)n3)CC2)cc1` [Example 34-23, 1-[4-(cyanomethyl)-1-{[4-(dimethylamino)phenyl]carbonyl}piperidin-4-yl]-3-(phenylamino)-lH-pyrazole-4-carboxamide]: the figures for the IC50 in assay [1] and in assay [2] were 230 nM and 14 nM, respectively.

With `CC(C)COC(=O)N1CC(CC#N)(n2cc(C(N)=O)c(Nc3ccccc3)n2)C1` [Example 30-51, 2-methylpropyl 3-[4-carbamoyl-3-(phenylamino)-1H-pyrazol-1-yl]-3-(cyanomethyl)azetidine-1-carboxylate], the results for the half-inhibitory concentration (IC50) in assay [1] and in assay [2] were 298 nM and 14 nM, respectively.

On to `N#CCC1(n2cc(C(N)=O)c(Nc3ccnc(F)c3)n2)CCN(Cc2ccc(Cl)cc2)CC1` [Example 22-71, 1-[1-(4-chlorobenzyl)-4-(cyanomethyl)piperidin-4-yl]-3-[(2-fluoropyridin-4-yl)amino]-1H-pyrazole-4-carboxamide], for which the IC50 amounted to 4 nM in assay [1] and 0.1 nM in assay [2].

On to `CS(=O)(=O)c1ccc(Nc2nn(C3(CC#N)CCC4(CC3)OCCO4)cc2C(N)=O)cc1` [Example 6-7, 1-[8-(cyanomethyl)-1,4-dioxaspiro[4.5]dec-8-yl]-3-{[4-(methylsulfonyl)phenyl]amino}-1H-pyrazole-4-carboxamide], for which the IC50 in assay [1] was determined as 206 nM; in assay [2], 19 nM.

Take `CC(C)(C)OC(=O)N1CCC(CC#N)(n2cc(C(N)=O)c(Nc3ccc(C(C)(C)O)nc3)n2)CC1` [Example 9-6, tert-butyl 4-(4-carbamoyl-3-(6-(2-hydroxypropan-2-yl)pyridin-3-ylamino)-1H-pyrazol-1-yl)-4-(cyanomethyl)piperidine-1-carboxylate]: the half-inhibitory concentration (IC50) came out at 3 nM in assay [1] and 0.8 nM in assay [2].

Turning to `CC1(C(=O)N2CCC(CC#N)(n3cc(C(N)=O)c(Nc4ccnc(F)c4)n3)CC2)CCC1` [Example 34-60, 1-{4-(cyanomethyl)-1-[(1-methylcyclobutyl)carbonyl]piperidin-4-yl}-3-[(2-fluoropyridin-4-yl)amino]-1H-pyrazole-4-carboxamide], the IC50 was 115 nM in assay [1] and 8 nM in assay [2].

Consider `Cc1c(CN2CCC(CC#N)(n3cc(C(N)=O)c(Nc4ccnc(F)c4)n3)CC2)cnn1C` [Example 22-40, 1-{4-(cyanomethyl)-1-[(1,5-dimethyl-1H-pyrazol-4-yl)methyl]piperidin-4-yl}-3-[(2-fluoropyridin-4-yl)amino]-1H-pyrazole-4-carboxamide], for which the half-maximal inhibitory concentration (IC50) in assay [1] stood at 582 nM; in assay [2] it was 23 nM.

As for `N#CCC1(n2cc(C(N)=O)c(Nc3ccnc(F)c3)n2)CCC(Nc2ccc(F)cc2)CC1` (stereo not drawn) [Example 40-47, Cis or trans 1-{1-(cyanomethyl)-4-[(4-fluorophenyl)amino]cyclohexyl}-3-[(2-fluoropyridin-4-yl)amino]-1H-pyrazole-4-carboxamide], the results for the IC50 in assay [1] and in assay [2] were over 1500 nM and 215 nM, respectively.

As to `N#CCC1(n2cc(C(N)=O)c(Nc3cncc(F)c3)n2)CCN(C(=O)OCC(F)F)CC1` [Example 30-15, 2,2-difluoroethyl 4-(4-carbamoyl-3-(5-fluoropyridin-3-ylamino)-1H-pyrazol-1-yl)-4-(cyanomethyl)piperidine-1-carboxylate], the half-maximal inhibitory concentration (IC50) was found to be 19 nM in assay [1] and 1 nM in assay [2].

`CC(C)(C)OC(=O)N1CCC(CC#N)(n2cc(C(N)=O)c(Nc3ccncn3)n2)CC1` [Example 13-1, tert-Butyl 4-(4-carbamoyl-3-(pyrimidin-4-ylamino)-1H-pyrazol-1-yl)-4-(cyanomethyl)piperidine-1-carboxylate]: the IC50 was 139 nM in assay [1] and 3 nM in assay [2].

On to `CS(=O)(=O)CC(=O)N1CCC(CC#N)(n2cc(C(N)=O)c(Nc3ccnc(F)c3)n2)CC1` [Example 34-58, 1-{4-(cyanomethyl)-1-[(methylsulfonyl)acetyl]piperidin-4-yl}-3-[(2-fluoropyridin-4-yl)amino]-1H-pyrazole-4-carboxamide], for which the results for the IC50 in assay [1] and in assay [2] were 22 nM and 0.5 nM, respectively.

With `N#CCC1(n2cc(C(N)=O)c(Nc3ccnc(F)c3)n2)CCN(Cc2ccccc2Cl)CC1` [Example 22-59, 1-[1-(2-chlorobenzyl)-4-(cyanomethyl)piperidin-4-yl]-3-[(2-fluoropyridin-4-yl)amino]-1H-pyrazole-4-carboxamide], the half-maximal inhibitory concentration (IC50) in assay [1] stood at 7 nM; in assay [2] it was 0.2 nM.

`CC(C)(C)OC(=O)N1CCC(CC#N)(n2cc(C(N)=O)c(Nc3ccnc(C#N)c3)n2)CC1` [Example 9-33, tert-butyl 4-{4-carbamoyl-3-[(2-cyanopyridin-4-yl)amino]-1H-pyrazol-1-yl}-4-(cyanomethyl)piperidine-1-carboxylate]: the IC50 in assay [1] was 6 nM; in assay [2], 0.2 nM.

Consider `N#CCC1(n2cc(C(N)=O)c(Nc3cncc(F)c3)n2)CCN(C(=O)CC(F)(F)F)CC1` [Example 35-3, 1-(4-(cyanomethyl)-1-(3,3,3-trifluoropropanoyl)piperidin-4-yl)-3-(5-fluoropyridin-3-ylamino)-1H-pyrazole-4-carboxamide], for which the IC50 in assay [1] was 35 nM; in assay [2] it was 3 nM.

Regarding `Cc1ccc(N2CCC(CC#N)(n3cc(C(N)=O)c(Nc4ccc(F)cc4)n3)CC2)cc1` [Example 3-39, 1-[4-(cyanomethyl)-1-(4-methylphenyl)piperidin-4-yl]-3-[(4-fluorophenyl)amino]-1H-pyrazole-4-carboxamide], the IC50 in assay [1] came out at 117 nM; in assay [2], 4 nM.

As for `Cc1nc(-c2ccc(Nc3nn(C4(CC#N)CCN(C(=O)OC(C)(C)C)CC4)cc3C(N)=O)cc2)no1` [Example 9-32, tert-butyl 4-(4-carbamoyl-3-{[4-(5-methyl-1,2,4-oxadiazol-3-yl)phenyl]amino}-1H-pyrazol-1-yl)-4-(cyanomethyl)piperidine-1-carboxylate], the IC50 is 8 nM in assay [1] and 0.3 nM in assay [2].

Consider `Cc1cc(C)c(NC(=O)N2CC(CC#N)(n3cc(C(N)=O)c(Nc4ccccc4)n3)C2)c(C)c1` [Example 38-12, 1-{3-(cyanomethyl)-1-[(2,4,6-trimethylphenyl)carbamoyl]azetidin-3-yl}-3-(phenylamino)-1H-pyrazole-4-carboxamide], for which the results for the IC50 in assay [1] and in assay [2] were 1440 nM and 128 nM, respectively.

Consider `N#CCC1(n2cc(C(N)=O)c(Nc3ccc(F)cc3)n2)CCN(c2cccc(CF)n2)CC1` [Example 3-50, 1-{4-(cyanomethyl)-1-[6-(fluoromethyl)pyridin-2-yl]piperidin-4-yl}-3-[(4-fluorophenyl)amino]-1H-pyrazole-4-carboxamide], for which the values for the IC50 in assay [1] and in assay [2] were 39 nM and 3 nM, respectively.

As to `CC(C)(C)OC(=O)N1CCC(CC#N)(n2cc(C(N)=O)c(Nc3cc(F)cc(F)c3)n2)CC1` [Example 12-3, tert-butyl 4-{4-carbamoyl-3-[(3,5-difluorophenyl)amino]-1H-pyrazol-1-yl}-4-(cyanomethyl)piperidine-1-carboxylate], the IC50 in assay [1] came out at 42 nM; in assay [2], 2 nM.

For the compound `CC(C)(C)C(=O)N1CCC(CC#N)(n2cc(C(N)=O)c(Nc3ccccc3)n2)CC1` [Example 34-3, 1-[4-(cyanomethyl)-1-(2,2-dimethylpropanoyl)piperidin-4-yl]-3-(phenylamino)-1H-pyrazole-4-carboxamide], the IC50 in assay [1] turned out to be 91 nM; in assay [2], 13 nM.

As for `CC(=O)Nc1ccc(CN2CCC(CC#N)(n3cc(C(N)=O)c(Nc4ccccc4)n3)CC2)cc1` [Example 21-12, 1-{1-[4-(acetylamino)benzyl]-4-(cyanomethyl)piperidin-4-yl}-3-(phenylamino)-1H-pyrazole-4-carboxamide], the IC50 in assay [1] turned out to be 128 nM; in assay [2], 7 nM.

In the case of `CN(C)CCCOC(=O)N1CC(CC#N)(n2cc(C(N)=O)c(Nc3ccccc3)n2)C1` [Example 30-71, 3-(dimethylamino)propyl 3-[4-carbamoyl-3-(phenylamino)-1H-pyrazol-1-yl]-3-(cyanomethyl)azetidine-1-carboxylate], the IC50 turned out to be 1480 nM in assay [1] and 200 nM in assay [2].

A word on the IC50: it is the concentration at which inhibition is half-maximal.
